“Also recorded” adds a separate entry of the source.
Legend:
PN (pkd1-null) cells = assay: In vitro cystogenesis (3D Matrigel culture, cyst size by cross-sectional area); format: cell-based, mouse
Experimental: Cells were treated with DMSO (control), VX-809, or C18 (10 μM) plus or minus forskolin on Days 0, 2, 4, 6, 8, 10, 12, 14. […] Cells were treated with DMSO (control), C18 or VX-809 (10 μM) from 9-16 (7) days. All pictures were taken on Day 16. Columns represent means±SEM (n=6). The average cyst size from the control group was considered 100%, and the sizes of the rest of the cysts were compared with this average. ****P<0.0001. Cyst size was estimated from the cross-sectional area;
VX-809 Reduces Cyst Growth in Vitro Experiments were conducted using a model ADPKD cell line (PH=pkd1+/− heterozygote control; PN=pkd−/− knockout), clonally isolated from single parental clones obtained from a pkdf1/− mouse that was manufactured in an ImmortoMouse containing the H-2Kb-tsA58 gene. The null cells (PN) stably express the Cre recombinase. All the cells proximal tubule origin. To determine how VX-809 reduces cyst growth, cysts were grown in the presence of forskolin (FIG. 2). […] Taken together with the animal data provided in FIG. 1, these in vitro results clearly indicate that CFTR correctors are effective in reducing cyst growth.
In vitro cytogenesis. To induce differentiation, cells were kept at 37° C. for at least 6 days without gamma-interferon. After one week, the cells were used for 3D culture or other experiments. Growth factor-reduced Matrigel #354230 (Corning) was used, and cell dilutions were prepared so that there were approximately 6,000 cells in 25 μl of medium; 25 μl of cell preparation was mixed with 50 μl of Matrigel. Pictures were taken with a Zeiss Axio microscope. Cystic areas were analyzed with ImageJ (provided by the NIH).

[1] = test system: intracellular Ca^2+ in PN cells; assay: Fura-2 Ca2+ imaging assay; format: cell-based, mouse; details: 10 μM, 16 h
Experimental: FIG. 5A, FIG. 5B, FIG. 5C, FIG. 5D, FIG. 5E, and FIG. 5F show intracellular Ca^2+ (F340/F380) levels obtained by ratiometric Fura-2 AM analysis of PN cells treated with VX-809 (10 μM) for 16 h. (FIG. 5A) Representative traces of intracellular Ca^2+ release in response to ATP (100 μM) in PN cells and cells treated with VX-809 (10 μM). (FIG. 5B, FIG. 5C) Graphs summarizing resting calcium levels (FIG. 5B) and the average amplitude of Ca^2+ release (FIG. 5C) in response to ATP. (FIG. 5D) Representative traces of ER Ca^2+ release in response to thapsigargin (4 μM) in PN cells treated with VX-809. (FIG. 5E, FIG. 5F) Resting calcium levels (FIG. 5E) and the average amplitude of Ca^2+ release (FIG. 5F) in response to thapsigargin. Amplitude was measured as the […] of the signal base to peak Δf/f. Significance between the two groups was analyzed using Student's t-test, n=4-5). *P<0.05, ***P<0.001.
Ca^2+-dependent signal transduction is associated with cyst formation. […] To address the effect of VX-809 on this Ca^2+ release, the cells were treated with thapsigargin, a specific inhibitor of the ER Ca^2+-ATPase which, when applied, allows Ca^2+ to leak out of the ER through independent Ca^2+-permeable pathways. A small effect of VX-809 on resting Ca^2+ was observed.
Fura-2 Ca^2+ imaging assay. On Day 5 of cell culture, the cells were loaded with the cell-permeant acetoxymethyl (AM) ester of the calcium indicator fura-2 (fura-2/AM) at 37° C. for 90 min. Measurements were made on a Zeiss inverted microscope equipped with a Sutter Lambda 10-2 controller and filter wheel assembly. For ATP stimulation experiments, the cells were exposed to 100 μM ATP diluted in the imaging buffer. A Zeiss FluorArc mercury lamp was used to excite the cells at 340 and 380 nm, and the emission response was measured at 510 nm Cell fluorescence was measured in response to excitation for 1000 ms at 340 nm and 200 ms at 380 nm once every 4 s. Image acquisition, image analysis, and filter wheel control were performed with IPLab software.

HSP27, 70, 90 and HSP40 = assay: Western blot of heat shock proteins in kidney tissue lysates; format: in vivo; details: 30 mg/kg BW, cyst-induced mouse kidneys
Experimental: FIG. 7A, FIG. 7B, FIG. 7C, FIG. 7D, FIG. 7E, and FIG. 7F show chaperone expression is altered in mice by VX-809. (FIG. 7A-FIG.7B) Representative Western blot images of HSP27, 70, 90 and HSP40 in lysates of kidney tissue from no cyst induced (ND), cyst induced with Doxycycline (D) or cyst induced pkd−/− mice treated with VX-809 (D+VX-809) 30 mg/kg BW. (FIG. 7C, FIG. 7D, FIG. 7E, and FIG. 7F). Columns represent averages±standard errors of HSP27, 70, 90 and HSP40 expression. Data were analyzed by non-parametric t-test. n=4 for each treated and control groups. Black lines between lanes represent representative experiments from the same gel. *P<0.05; **P<0.01;
To facilitate their growth in the kidney, cysts have developed an altered network of proteins that most likely serves to protect them from stress . Next, it was determined whether VX-809 would alter the levels of Hsps in pkd−/− mice and in PN cells. […] Hsp 27, 70 and 90 are all elevated in cystic kidneys compared to normal controls. […] There is no change in Hsp40. […] Both sets of data are consistent with an alteration in the heat shock response to cyst growth.

CFTR in PN cells = assay: CFTR expression and biotinylation; format: cell-based, mouse; details: 10 μM, 16 h, vs control PN cells
Experimental: FIG. 19A, FIG. 19B, FIG. 19C, and FIG. 19D show CFTR expression in PN cells treated with VX-809 (10 μM) for 16 h.
The expression of CFTR was evaluated in PN cells treated with VX-809 and control PN cells. PN cells were treated with 10 μM VX-809 for 16 h or a control.

Cc1ccc(NC(=O)C2(c3ccc4c(c3)OC(F)(F)O4)CC2)nc1-c1cccc(C(=O)O)c1 [VX-809, lumacaftor]
size of established cysts (PN (pkd1-null) cells; 10 μM from Days 9-16, in the presence of forskolin): reduces the size of established cysts | cyst growth (PN (pkd1-null) cells; 10 μM on Days 0, 2, 4, 6, 8, 10, 12, 14, plus or minus forskolin): reduce cyst growth equally well; also recorded: inhibits cyst growth | cyst size (PN (pkd1-null) cells; every other day or Days 9-16, in the presence of forskolin): dramatically reducing cyst size | intracellular Ca^2+ movement in response to ATP ([1]; ATP 100 μM): no effect | resting Ca^2+ ([1]; ATP experiment): small reduction | thapsigargin-induced release of Ca^2+ from the ER ([1]; thapsigargin 4 μM): dramatically reduced | resting Ca^2+ ([1]; thapsigargin experiment): small effect | Hsp27 expression (HSP27, 70, 90 and HSP40): significantly less expression | Hsp40 expression (HSP27, 70, 90 and HSP40): no change | Hsp70 expression (HSP27, 70, 90 and HSP40): significantly less expression | Hsp90 expression (HSP27, 70, 90 and HSP40): significantly less expression | CFTR expression (CFTR in PN cells): enhanced | biotinylation of CFTR (CFTR in PN cells): significantly increased

Source: patent US20220133702A1, “CYSTIC FIBROSIS TRANSMEMBRANE CONDUCTANCE REGULATOR MODULATORS FOR TREATING AUTOSOMAL DOMINANT POLYCYSTIC KIDNEY DISEASE” (The Johns Hopkins University, priority 2020, published 2022)
